The experiment concerns IL-4, IL-13, STAT-6, IFNγ, IL-17a, IL-10 mRNA in prostates of CP1 infected mice. Briefly: qPCR for cytokine transcripts in prostates. The conditions noted are these: late, day 35 post CP1 infection; single drug or combination; CrS 0.5 mg/kg, CeHCl 2.5 mg/kg i.p. daily 10 days. The format is in vivo, C57BL/6 mice. The procedure:
The prostates were harvested from mice after euthanizing as described previously (32). Depending on the experimental design, each prostate sample (separated by lobes) were either fixed in 10% formalin or frozen at −80° C. in TRIzol™ reagent (Life Technologies Corporation, Grand Island, NY, USA), or frozen at −80° C. in 1×RIPA (Santa Cruz Biotechnology, Dallas, TX, USA) containing complete-EDTA protease inhibitor cocktail and phosSTOP phosphatase inhibitor (Millipore-Sigma, Burlington, MA, USA), or processed for tissue digestion for flow cytometry. Formalin samples were further processed and embedded in paraffin. The formalin-fixed paraffin-embedded (FFPE) samples were then sectioned (5 μm sections) and mounted on glass slides for staining. […] Following voiding behavior testing on days 14 or 35 [“early treatment” or “late treatment” groups respectively], mice were euthanized and tissues were prepared as described above. Total RNA was isolated using TRIzol™ reagent (Life Technologies Corporation, Grand Island, NY, USA), and cDNA synthesis, starting with 1 μg of total RNA, was performed with random hexamers using High-Capacity cDNA Reverse Transcription Kit (Life Technologies Corporation, Grand Island, NY, USA) per the manufacturer's instructions. Primers for quantitative PCR (qPCR) were created for the RNA of interest using the NIH online primer blast tool. Reverse Transcription-Quantitative Polymerase Chain Reaction (RT-qPCR) reactions were performed using SsoAdvanced™ universal SYBR® green (Bio-Rad, Hercules, CA, USA) and run on the CFX Connect (Bio-Rad, Hercules, CA, USA) platform. A full table of primer sequences is included in Table 1. The data were analyzed by the 2^−ΔΔCT method (38), and normalized to GAPDH as the housekeeping gene. The data are represented as fold change normalized to the average expression of the gene of interest in their respective control group.
Background: In qPCR the cycle at which signal appears reflects the starting amount.

Structures can show the parent of a compound that is named as a salt.

Regarding `O=C(O)COCCN1CCN(C(c2ccccc2)c2ccc(Cl)cc2)CC1` (stereo not shown) [CeHCl, cetirizine di-hydrochloride], the “IL-4 gene expression in prostates of CP1-infected mice (FIG. 12)” value is “reduced the gene expression levels of IL-4 and IL-13 to a modest but non-significant levels”; the “IL-13 gene expression in prostates of CP1-infected mice (FIG. 12)” value is “reduced the gene expression levels of IL-4 and IL-13 to a modest but non-significant levels”.
Turning to `O=C([O-])c1cc(=O)c2c(OCC(O)COc3cccc4oc(C(=O)[O-])cc(=O)c34)cccc2o1.[Na+].[Na+]` [CrS, cromolyn sodium], the “IL-4 gene expression in prostates of CP1-infected mice (FIG. 12)” value was “reduced the gene expression levels of IL-4 and IL-13 to negligible levels”; the “IL-13 gene expression in prostates of CP1-infected mice (FIG. 12)” value was “reduced the gene expression levels of IL-4 and IL-13 to negligible levels”.

The record behind these values is patent US11857531B2, “Combination mast cell inhibition for treatment of BPH/LUTS” (Northwestern University, priority 2020, dated 2024).
